SMILES strings stand for the structures. In brackets after ≈: the same amount, converted by molar mass.

For the assay, the system named is HL-60. In words: Cytotoxicity against human HL60 cells by MTT reduction assay. In kind it is functional, cell-based.

As for `CC1CC[C@@]2(OC1)O[C@H]1C[C@H]3[C@@H]4C[C@H](O)[C@H]5C[C@@H](O[C@@H]6O[C@H](CO)[C@H](O[C@@H]7O[C@H](CO)[C@@H](O)[C@H](O[C@@H]8OC[C@@H](O)[C@H](O)[C@H]8O)[C@H]7O[C@@H]7O[C@H](CO)[C@@H](O)[C@H](O[C@@H]8OC[C@@H](O)[C@H](O)[C@H]8O)[C@H]7O)[C@H](O)[C@H]6O)CC[C@]5(C)[C@H]4CC[C@]3(C)[C@H]1[C@@H]2C` (some centres undefined), half-maximal inhibition (IC50) was put at 2.6 µg/mL (≈ 2.2 µM).

Regarding `CC1CC[C@@]2(OC1)O[C@H]1C[C@H]3[C@@H]4CC[C@H]5C[C@@H](O[C@@H]6O[C@H](CO)[C@H](O[C@@H]7O[C@H](CO)[C@@H](O)[C@H](O[C@@H]8OC[C@@H](O)[C@H](O)[C@H]8O)[C@H]7O[C@@H]7O[C@H](CO)[C@@H](O)[C@H](O[C@@H]8OC[C@@H](O)[C@H](O)[C@H]8O)[C@H]7O)[C@H](O)[C@H]6O)CC[C@]5(C)C4=CC(=O)[C@]3(C)[C@H]1[C@@H]2C` (some centres undefined), the IC50 was found to be 6.1 µg/mL (≈ 5.17 µM).

`CC1CC[C@@]2(OC1)O[C@H]1C[C@H]3[C@@H]4CC[C@H]5C[C@@H](O[C@@H]6O[C@H](CO)[C@H](O[C@@H]7O[C@H](CO)[C@@H](O)[C@H](O[C@@H]8OC[C@@H](O)[C@H](O)[C@H]8O)[C@H]7O[C@@H]7O[C@H](CO)[C@@H](O)[C@H](O[C@@H]8OC[C@@H](O)[C@H](O)[C@H]8O)[C@H]7O)[C@H](O)[C@H]6O)CC[C@]5(C)[C@H]4CC(=O)[C@]3(C)[C@H]1[C@@H]2C` (some centres undefined): the IC50 was determined as 3.2 µg/mL (≈ 2.71 µM).

For the molecule `CC(C)CC[C@H](O)[C@@H](C)[C@H]1[C@@H](O[C@@H]2OC[C@](O)(CO)[C@H]2O)C[C@H]2[C@@H]3CC=C4C[C@@H](O)C[C@@H](O[C@@H]5O[C@H](CO)[C@@H](O)[C@H](O)[C@H]5O)[C@]4(C)[C@H]3CC[C@]12C`, the IC50 was > 10 µg/mL.

These data come from ChEMBL document CHEMBL1155624, “Steroidal glycosides from the aerial parts of Polianthes tuberosa” (J Nat Prod, 2000).
